Structures can show the parent of a compound that is named as a salt.
Each compound was assayed against human 5-HT3 serotonin receptors (Homo sapiens (Human), UniProt P46098) (assay: [3H]BRL 43694 competition binding). Details: CHO cell membranes, [3H]BRL 43694, Cheng Prusoff; read-out: h-5HT3 Ki.
Chain of human 5-HT3 serotonin receptors (P46098 24-478): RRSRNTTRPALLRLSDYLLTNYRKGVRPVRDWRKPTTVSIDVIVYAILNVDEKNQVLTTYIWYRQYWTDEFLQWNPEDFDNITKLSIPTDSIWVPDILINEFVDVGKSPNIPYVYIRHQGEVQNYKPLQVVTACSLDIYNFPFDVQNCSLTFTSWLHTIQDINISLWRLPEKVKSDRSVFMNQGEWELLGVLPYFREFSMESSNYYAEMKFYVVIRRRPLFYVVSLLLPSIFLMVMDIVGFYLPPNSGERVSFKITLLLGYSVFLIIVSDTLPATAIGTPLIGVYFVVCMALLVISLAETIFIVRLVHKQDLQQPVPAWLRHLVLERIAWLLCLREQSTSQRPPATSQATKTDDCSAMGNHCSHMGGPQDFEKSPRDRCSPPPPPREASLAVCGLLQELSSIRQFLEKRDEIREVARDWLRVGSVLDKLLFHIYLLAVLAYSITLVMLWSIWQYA
In the case of `CC1(C)[C@H](NC(=O)c2cc3ccc(Cl)c(C(F)(F)F)c3s2)C2CCN1CC2` [(R)-111, (R)-6-chloro-N-(2,2-dimethylquinuclidin-3-yl)-7-(trifluoromethyl)benzo[b]thiophene-2-carboxamide hydrochloride], the Ki is reported as > 10000 nM.
`Cc1ccc2cc(C(=O)N[C@@H]3C4CCN(CC4)C3(C)C)sc2c1C1CC1` [(R)-140, (R)-7-cyclopropyl-N-(2,2-dimethylquinuclidin-3-yl)-6-methylbenzo[b]thiophene-2-carboxamide hydrochloride] showed a Ki of 22000 nM.
`COc1c(C)ccc2cc(C(=O)N[C@@H]3C4CCN(CC4)C34CC4)sc12` [(R)-193, (R)-7-methoxy-6-methyl-N-(1′-azaspiro[cyclopropane-1,2′-bicyclo[2.2.2]octan]-3′-yl)benzo[b]thiophene-2-carboxamide hydrochloride] was tested, and the Ki was 6000 nM.
`CCOc1cccc2cc(C(=O)N[C@@H]3C4CCN(CC4)C34CC4)sc12` [(R)-190, (R)-7-ethoxy-N-(1′-azaspiro[cyclopropane-1,2′-bicyclo[2.2.2]octan]-3′-yl)benzo[b]thiophene-2-carboxamide hydrochloride] was tested, and the Ki was 290 nM.
With `Cc1ccc2cc(C(=O)N[C@@H]3C4CCN(CC4)C34CC4)sc2c1C#N` [(R)-198, (R)-7-cyano-6-methyl-N-(1′-azaspiro[cyclopropane-1,2′-bicyclo[2.2.2]octan]-3′-yl)benzo[b]thiophene-2-carboxamide hydrochloride] the Ki was > 10000 nM.
For `COc1c(C2CC2)ccc2cc(C(=O)N[C@@H]3C4CCN(CC4)C34CC4)sc12` [(R)-262, (R)-6-cyclopropyl-7-methoxy-N-(1′-azaspiro[cyclopropane-1,2′-bicyclo[2.2.2]octan]-3′-yl)benzo[b]thiophene-2-carboxamide hydrochloride], the Ki was > 10000 nM.
Compound `COc1ccc2cc(C(=O)N[C@@H]3C4CCN(CC4)C34CC4)sc2c1Cl` [(R)-154, (R)-7-chloro-6-methoxy-N-(1′-azaspiro[cyclopropane-1,2′-bicyclo[2.2.2]octan]-3′-yl)benzo[b]thiophene-2-carboxamide hydrochloride] has a Ki of 6200 nM.
`O=C(N[C@@H]1C2CCN(CC2)C12CC2)c1cc2cc(F)c(Cl)cc2s1` [(R)-172, (R)-6-chloro-5-fluoro-N-(1′-azaspiro[cyclopropane-1,2′-bicyclo[2.2.2]octan]-3′-yl)benzo[b]thiophene-2-carboxamide hydrochloride] gave a Ki of 4900 nM.
For `Cc1ccc2cc(C(=O)N[C@@H]3C4CCN(CC4)C34CC4)sc2c1C1CC1` [(R)-196, (R)-7-cyclopropyl-6-methyl-N-(1′-azaspiro[cyclopropane-1,2′-bicyclo[2.2.2]octan]-3′-yl)benzo[b]thiophene-2-carboxamide hydrochloride], the Ki was 610 nM.
Work on `Cc1c(Cl)ccc2cc(C(=O)N[C@@H]3C4CCN(CC4)C34CC4)sc12` [(R)-205, (R)-6-chloro-7-methyl-N-(1′-azaspiro[cyclopropane-1,2′-bicyclo[2.2.2]octan]-3′-yl)benzo[b]thiophene-2-carboxamide hydrochloride] yielded a Ki of 2600 nM.
In the case of `CCOc1ccc2cc(C(=O)N[C@@H]3C4CCN(CC4)C34CC4)sc2c1` [(R)-189, (R)-6-ethoxy-N-(1′-azaspiro[cyclopropane-1,2′-bicyclo[2.2.2]octan]-3′-yl)benzo[b]thiophene-2-carboxamide hydrochloride], the Ki is reported as > 10000 nM.
For `O=C(N[C@@H]1C2CCN(CC2)C12CC2)c1ccc2oc(C3CC3)cc2c1` [(R)-183, (R)-2-cyclopropyl-N-(1′-azaspiro[cyclopropane-1,2′-bicyclo[2.2.2]octan]-3′-yl)benzofuran-5-carboxamide hydrochloride], the Ki was > 10000 nM.
In the case of `COCc1cccc2cc(C(=O)N[C@@H]3C4CCN(CC4)C34CC4)sc12` [(R)-199, (R)-7-(methoxymethyl)-N-(1′-azaspiro[cyclopropane-1,2′-bicyclo[2.2.2]octan]-3′-yl)benzo[b]thiophene-2-carboxamide hydrochloride], the Ki is reported as 580 nM.
`CC1(C)[C@H](NC(=O)c2cc3cccc(-c4ccccc4)c3s2)C2CCN1CC2` [(R)-132, (R)—N-(2,2-dimethylquinuclidin-3-yl)-7-phenylbenzo[b]thiophene-2-carboxamide hydrochloride] was tested, and the Ki was 100 nM.
Compound `CC(C)Oc1cccc2cc(C(=O)N[C@@H]3C4CCN(CC4)C34CC4)sc12` [(R)-191, (R)-7-isopropoxy-N-(1′-azaspiro[cyclopropane-1,2′-bicyclo[2.2.2]octan]-3′-yl)benzo[b]thiophene-2-carboxamide hydrochloride] has a Ki of 160 nM.
In the case of `CC1(C)[C@H](NC(=O)c2cc3cc(F)c(Cl)cc3s2)C2CCN1CC2` [(R)-123, (R)-6-chloro-N-(2,2-dimethylquinuclidin-3-yl)-5-fluorobenzo[b]thiophene-2-carboxamide hydrochloride], the Ki is reported as > 10000 nM.
With `CC1(C)[C@H](NC(=O)c2cc3cc(F)c(Cl)c(F)c3s2)C2CCN1CC2` [(R)-125, (R)-6-chloro-N-(2,2-dimethylquinuclidin-3-yl)-5,7-difluorobenzo[b]thiophene-2-carboxamide hydrochloride] the Ki was > 10000 nM.
In the case of `O=C(N[C@@H]1C2CCN(CC2)C12CC2)c1cc2cccc(CC(F)(F)F)c2s1` [(R)-177, (R)—N-(1′-azaspiro[cyclopropane-1,2′-bicyclo[2.2.2]octan]-3′-yl)-7-(2,2,2-trifluoroethyl)benzo[b]thiophene-2-carboxamide hydrochloride], the Ki is reported as 690 nM.
Compound `CC1(C)[C@H](NC(=O)c2cc3cccc(C4CC4)c3s2)C2CCN1CC2` [(R)-118, (R)-7-cyclopropyl-N-(2,2-dimethylquinuclidin-3-yl)benzo[b]thiophene-2-carboxamide hydrochloride] has a Ki of 230 nM.
For `Cc1cccc2cc(C(=O)N[C@@H]3C4CCN(CC4)C3(C)C)sc12` [(R)-126, (R)—N-(2,2-dimethylquinuclidin-3-yl)-7-methylbenzo[b]thiophene-2-carboxamide hydrochloride], the Ki was 170 nM.
`O=C(N[C@@H]1C2CCN(CC2)C12CC2)c1cc2ccc3c(c2s1)OCCC3` [(R)-201, (R)—N-(1′-azaspiro[cyclopropane-1,2′-bicyclo[2.2.2]octan]-3′-yl)-3,4-dihydro-2H-thieno[3,2-h]chromene-8-carboxamide hydrochloride] showed a Ki of 3600 nM.
With `COc1c(Cl)ccc2cc(C(=O)N[C@@H]3C4CCN(CC4)C34CC4)sc12` [(R)-192, (R)-6-chloro-7-methoxy-N-(1′-azaspiro[cyclopropane-1,2′-bicyclo[2.2.2]octan]-3′-yl)benzo[b]thiophene-2-carboxamide hydrochloride] the Ki was > 10000 nM.
`O=C(N[C@@H]1C2CCN(CC2)C12CC2)c1cc2cccc(-c3ccccc3)c2s1` [(R)-186, (R)-7-phenyl-N-(1′-azaspiro[cyclopropane-1,2′-bicyclo[2.2.2]octan]-3′-yl)benzo[b]thiophene-2-carboxamide hydrochloride] was tested, and the Ki was 30 nM.
For `CC1(c2cccc3cc(C(=O)N[C@@H]4C5CCN(CC5)C45CC5)sc23)CC1` [(R)-188, (R)-7-(1-methylcyclopropyl)-N-(1′-azaspiro[cyclopropane-1,2′-bicyclo[2.2.2]octan]-3′-yl)benzo[b]thiophene-2-carboxamide-hydrochloride], the Ki was 200 nM.
With `O=C(N[C@@H]1C2CCN(CC2)C12CC2)c1cc2cc(F)c(Cl)c(F)c2s1` [(R)-175, (R)-6-chloro-5,7-difluoro-N-(1′-azaspiro[cyclopropane-1,2′-bicyclo[2.2.2]octan]-3′-yl)benzo[b]thiophene-2-carboxamide hydrochloride] the Ki was > 10000 nM.
Compound `O=C(N[C@@H]1C2CCN(CC2)C12CC2)c1n[nH]c2ccccc12` [(R)-194, (R)—N-(1′-azaspiro[cyclopropane-1,2′-bicyclo[2.2.2]octan]-3′-yl)-1H-indazole-3-carboxamide hydrochloride] has a Ki of 79 nM.
For `COc1cc2sc(C(=O)N[C@@H]3C4CCN(CC4)C34CC4)cc2cc1F` [(R)-173, (R)-5-fluoro-6-methoxy-N-(1′-azaspiro[cyclopropane-1,2′-bicyclo[2.2.2]octan]-3′-yl)benzo[b]thiophene-2-carboxamide hydrochloride], the Ki was > 10000 nM.
`O=C(N[C@@H]1C2CCN(CC2)C12CC2)c1cc2cccc(OC(F)(F)F)c2s1` [(R)-167, (R)—N-(1′-azaspiro[cyclopropane-1,2′-bicyclo[2.2.2]octan]-3′-yl)-7-(trifluoromethoxy)benzo[b]thiophene-2-carboxamide hydrochloride] was tested, and the Ki was 895 nM.
Compound `COc1c(F)ccc2cc(C(=O)N[C@@H]3C4CCN(CC4)C34CC4)sc12` [(R)-197, (R)-6-fluoro-7-methoxy-N-(1′-azaspiro[cyclopropane-1,2′-bicyclo[2.2.2]octan]-3′-yl)benzo[b]thiophene-2-carboxamide hydrochloride] has a Ki of 2800 nM.
`Cc1cccc2cc(C(=O)N[C@@H]3C4CCN(CC4)C34CC4)sc12` [(R)-176, (R)-7-methyl-N-(1′-azaspiro[cyclopropane-1,2′-bicyclo[2.2.2]octan]-3′-yl)benzo[b]thiophene-2-carboxamide hydrochloride] showed a Ki of 130 nM.
With `N#Cc1cccc2cc(C(=O)N[C@@H]3C4CCN(CC4)C34CC4)sc12` [(R)-160, (R)-7-cyano-N-(1′-azaspiro[cyclopropane-1,2′-bicyclo[2.2.2]octan]-3′-yl)benzo[b]thiophene-2-carboxamide hydrochloride] the Ki was 260 nM.
With `CN(C)c1cccc2cc(C(=O)N[C@@H]3C4CCN(CC4)C34CC4)sc12` [(R)-178, (R)-7-(dimethylamino)-N-(1′-azaspiro[cyclopropane-1,2′-bicyclo[2.2.2]octan]-3′-yl)benzo[b]thiophene-2-carboxamide hydrochloride] the Ki was 400 nM.
`CC1(C)[C@H](NC(=O)c2cc3cccc(-c4nccs4)c3s2)C2CCN1CC2` [(R)-129, (R)—N-(2,2-dimethylquinuclidin-3-yl)-7-(thiazol-2-yl)benzo[b]thiophene-2-carboxamide hydrochloride] gave a Ki of 440 nM.
In the case of `CC1(c2cccc3cc(C(=O)N[C@@H]4C5CCN(CC5)C4(C)C)sc23)CC1` [(R)-133, (R)—N-(2,2-dimethylquinuclidin-3-yl)-7-(1-methylcyclopropyl)benzo[b]thiophene-2-carboxamide hydrochloride], the Ki is reported as 400 nM.
